Measurements: paper PMC7932521, “2-aminobenzimidazoles for leishmaniasis: From initial hit discovery to in vivo profiling” (PLoS Neglected Tropical Diseases, 2021)
Read-outs that look alike come from different tables or passages of the source.

Assays:
[1] = Mouse single-dose pharmacokinetics; type: in vivo; conditions: for free plasma concentration (corrected by PPB) versus in vitro IC50 (corrected for medium binding): after single oral dosing
Method: Compounds were administered to groups (n = 6) of female BALB/c mice via single intravenous dosing (at 2 mg/kg) or single oral dosing (at 50 mg/kg) employing a solution/suspension vehicle comprising of 10% ethanol, 40% PEG400 and 0.4% Tween80 in saline buffer (pH adjusted to 9). Samples derived from plasma (at 0.083 for iv only, 0.25, 1, 2, 4, 8 and 24 h) were quantified by LC−MS/MS. Data analysis and calculation of pharmacokinetic parameters was performed using Phoenix WinNonlin version 7.0.

Mouse 5-day tolerability = type: in vivo; conditions: healthy mice
Method: Compounds were administered to groups (n = 3) of female BALB/c mice via oral gavage in a 5-day exploratory repeat-dose study at doses of 25, 50 and 100 mg/kg/day, employing a solution/suspension vehicle comprising 10% ethanol, 40% PEG400 and 0.4% Tween80 in saline buffer (pH adjusted to 9). Repeat-dose toxicity was evaluated based on mortality, clinical observations, body weight and macroscopic organ pathologies.

[2] = tested on: L. infantum (MHOM/BR/2005/NLC) strain expressing luciferase; type: in vivo, Leishmania infantum; conditions: 25 mg/kg/day oral
Method: Groups of female BALB/c mice (n = 5) were infected with 10^8 stationary phase promastigotes of L. infantum chagasi-LUC in a final volume of 100 μL by the intraperitoneal route. At day 14 post-infection, groups were orally treated for 5 days with either drug vehicle only (10% ethanol, 40% PEG400 and 0.4% Tween80 in saline buffer—pH adjusted to 9), miltefosine (40 mg/kg QD) or with compounds 29 and 39 (25 mg/kg QD). Light emission in the ventral abdominal cavity of infected animals was recorded by bioimaging (IVIS Spectrum, Caliper Life Sciences) on 14, 19- and 24-days post-infection. Before imaging, mice received 75 mg/kg VivoGlo™ Luciferin (Promega Corporation) (i.p.) and were anesthetized in a 2% isoflurane atmosphere (Cristália). Animals were then transferred to the imaging chamber and kept in a 2% isoflurane atmosphere. Emitted photons were collected using the high resolution (medium binning) mode. Total photon emission from a defined region of interest (ROI) corresponding to the whole abdominal area was registered. The same ROI was applied to all animals in any given group. Images were acquired 15 min after luciferin injection. Total photon emission from each mouse was quantified with Living Image software version 4.3.1 (Caliper Life Sciences), and results were expressed as the number of photons/s/ROI subtracted from the corresponding ROI in uninfected animals. The detected signal was presented as a pseudocolor image representing light intensity (red = most intense and blue = least intense) and superimposed on the gray scale reference image.

[3] = tested on: L. donovani MHOM/ NP/2003/ BPK282/0-cl4; experiment: VL/CL panel, intracellular amastigotes; type: cell-based; conditions: Leishmania donovani; average; read-out: IC-50 L. donovani MHOM/ NP/2003/ BPK282/0-cl4
Method: (§1) For the antileishmania in vitro assays, 3×10^4 PMM/well were seeded in 96-well plates. After 24h, 5×10^5 amastigotes/well were added and incubated for 2h at 37°C. Next, the compounds in 4-fold serial dilutions were added and the plates were further incubated for 5 days (37°C, 5% CO2). Parasite burdens were assessed using an inverted microscope after Giemsa staining. The results were expressed as percent reduction in parasite burdens compared to negative control wells (100% growth) and IC50 values were determined. Values represent the geometric mean of at least two independent experiments. Miltefosine was used as the positive control in all plates.

[4] = tested on: L. donovani MHOM/ET/2007/LLM-1600; experiment: VL/CL panel, intracellular amastigotes; type: cell-based; conditions: Leishmania donovani; average; read-out: IC-50 L. donovani MHOM/ET/2007/LLM-1600
Method: as §1

[5] = tested on: L. donovani MHOM/NP/03/BPK275/0-cl18; experiment: VL/CL panel, intracellular amastigotes; type: cell-based; conditions: Leishmania donovani; average; read-out: IC-50 L. donovani MHOM/NP/03/BPK275/0-cl18
Method: as §1

[6] = tested on: L. guyanensis MHOM/PE/02/PER 054/0; experiment: VL/CL panel, intracellular amastigotes; type: cell-based; conditions: Leishmania guyanensis; average; read-out: IC-50 L. guyanensis MHOM/PE/02/PER 054/0
Method: as §1

[7] = tested on: L. infantum LEM3323-cl4 MIL; experiment: VL/CL panel, intracellular amastigotes; type: cell-based; conditions: Leishmania infantum, read-out: IC-50 L. infantum LEM3323-cl4 MIL
Method: as §1

[8] = tested on: L. infantum LEM3323-cl4 PMM; experiment: VL/CL panel, intracellular amastigotes; type: cell-based; conditions: Leishmania infantum, read-out: IC-50 L. infantum LEM3323-cl4 PMM
Method: as §1

[9] = tested on: L. infantum MHOM/BR/2007/WC (L3015); experiment: VL/CL panel, intracellular amastigotes; type: cell-based; conditions: Leishmania infantum; average; read-out: IC-50 L. infantum MHOM/BR/2007/WC (L3015)
Method: as §1

[10] = tested on: L. infantum MHOM/ES/2016/LLM-2346; experiment: VL/CL panel, intracellular amastigotes; type: cell-based; conditions: Leishmania infantum; average; read-out: IC-50 L. infantum MHOM/ES/2016/LLM-2346
Method: as §1

[11] = tested on: L. infantum MHOM/FR/96/LEM3323-cl4; experiment: VL/CL panel, intracellular amastigotes; type: cell-based; conditions: Leishmania infantum; average; read-out: IC-50 L. infantum MHOM/FR/96/LEM3323-cl4
Method: as §1

[12] = tested on: L. major MHOM/IL/81/Friedlin; experiment: VL/CL panel, intracellular amastigotes; type: cell-based; conditions: Leishmania major; average; read-out: IC-50 L. major MHOM/IL/81/Friedlin
Method: as §1

[13] = tested on: L. major MHOM/SA/85/JISH118; experiment: VL/CL panel, intracellular amastigotes; type: cell-based; conditions: Leishmania major; average; read-out: IC-50 L. major MHOM/SA/85/JISH118
Method: as §1

[14] = tested on: L. panamensis MHOM/PA/71/LS94; experiment: VL/CL panel, intracellular amastigotes; type: cell-based; conditions: Leishmania panamensis; average; read-out: IC-50 L. panamensis MHOM/PA/71/LS94
Method: as §1

[15] = tested on: L. tropica MHOM/AF/2015/HTD7; experiment: VL/CL panel, intracellular amastigotes; type: cell-based; conditions: Leishmania tropica; average; read-out: IC-50 L. tropica MHOM/AF/2015/HTD7
Method: as §1

[16] = female, BALB/c, plasma, single oral dose 50 mg/kg
[17] = female, BALB/c, plasma, single oral dose 50 mg/kg, read-out: Cmax

| SMILES | free plasma concentration (corrected by PPB) versus in vitro IC50 (corrected for medium binding) [1] | AUC(0-t) [1, 16] [µg·h/mL] | Cmax [1, 17] [µg/mL] | 5-day tolerability (Mouse 5-day tolerability; oral 25 mg/kg/day) | 5-day tolerability (Mouse 5-day tolerability; oral 50 mg/kg/day) | 5-day tolerability (Mouse 5-day tolerability; oral top dose (100 mg/kg/day)) | toxicity in infected mice [2] | IC50 [3] [µM] | IC50 [4] [µM] | IC50 [5] [µM] | IC50 [6] [µM] | IC50 [7] [µM] | IC50 [8] [µM] | IC50 [9] [µM] | IC50 [10] [µM] | IC50 [11] [µM] | IC50 [12] [µM] | IC50 [13] [µM] | IC50 [14] [µM] | IC50 [15] [µM] | further results |
| --- | --- | --- | --- | --- | --- | --- | --- | --- | --- | --- | --- | --- | --- | --- | --- | --- | --- | --- | --- | --- | --- |
| Cn1nccc1C(=O)Nc1nc2ccc(C#N)cc2n1CC(C)(C)C [Compound 29, O=C(Nc1n(CC(C)(C)C)c(c2n1)cc(C#N)cc2)c3n(C)ncc3] | below the in vitro IC50 | 35.4 | 2 | well tolerated | clinical signs from day 3 of treatment | body weight reduction and severe toxic signs, including mortality | one animal was euthanized due to severe clinical signs of distress | 0.3 | 4.04 | 1.02 | 0.55 | 2.16 | 1.62 | 2.68 | 3.17 | 2.81 | 1.71 | 8.64 | 0.63 | 2.85 | higher AUClast, 50 vs 10 mg/kg oral [1]: approximately 4 fold; increase in Cmax, 50 vs 10 mg/kg oral [1]: 2 fold; clearance ([1]; female, BALB/c, plasma, 2 mg/kg IV): 0.54 L/h/kg; bioavailability [1, 16]: 37%; parasite load (bioluminescence) ([2]; 5 days, end of treatment or washout): no decrease in parasite load |
| Cn1nccc1C(=O)Nc1nc2ccc(C#N)cc2n1CC(F)(F)F [Compound 30, O=C(c1ccnn1C)Nc2nc(ccc(C#N)c3)c3n2CC(F)(F)F] | – | 25.2 | 2 | – | – | – | – | – | – | – | – | – | – | – | – | – | – | – | – | – | half-life [1, 16]: 6.8 h |
| Cn1nc(C(F)(F)F)cc1C(=O)Nc1nc2ccc(C#N)cc2n1CC(F)(F)F [Compound 39, O=C(c1cc(C(F)(F)F)nn1C)Nc2nc(ccc(C#N)c3)c3n2CC(F)(F)F] | up to four times above the free IC50 | 63.7 | 7.3 | well tolerated | clinical signs from day 3 of treatment | body weight reduction and severe toxic signs, including mortality | severe toxic effects | 0.1 | 1.61 | 0.11 | 1.08 | 4.16 | 3.21 | 3.64 | 4.65 | 3.01 | 3.04 | 17 | 1.22 | 5.9 | Cmax ([1]; female, BALB/c, plasma, single 50 mg/kg oral dose, read-out: total Cmax): ~17 µM; half-life [1, 16]: 8 h; exposure (AUClast) compared to 29 at the same dose ([1]; oral 50 mg/kg): 2 fold |
